{"source": "ChEMBL document CHEMBL1127713", "about": "“Anti-HIV activity of N-(2,3-dihalogenopropyl)- and N-allyl-glycine containing pentapeptides” (Bioorg Med Chem Lett, 1994)", "key": {"[1]": {"target": "Human immunodeficiency virus type 1 protease (Human immunodeficiency virus 1, UniProt Q72874)", "assay": "Antiviral activity against HIV-1 in CEM cells.", "format": "functional, cell-based", "details": "ccrf-cem; call rule not given here"}, "[2]": {"target": "Human immunodeficiency virus type 1 protease (Human immunodeficiency virus 1) (UniProt Q72874)", "assay": "Inhibitory activity against HIV-1 Protease using Suc-TLNFPIS-4-AMC as substrate in fluorescence assay at 10e-5 concentration"}, "[3]": {"target": "Human immunodeficiency virus type 1 protease (Human immunodeficiency virus 1) (UniProt Q72874)", "assay": "Inhibitory activity against HIV-1 Protease using VSQNF(NO2)PIV as substrate in spectrophotometric assay at 10e-5 concentration"}, "CCRF-CEM [4]": {"tested_on": "CCRF-CEM", "assay": "Compound was tested for antiviral activity against HIV-1 in CEM cells; Non active compound", "format": "functional, cell-based, Homo sapiens"}, "[5]": {"assay": "Selectivity index between IC50 and EC50", "format": "functional"}, "CCRF-CEM [6]": {"tested_on": "CCRF-CEM", "assay": "Compound was tested for antiviral activity against HIV-1 in CEM cells", "format": "functional, cell-based", "details": "Homo sapiens"}, "CCRF-CEM [7]": {"tested_on": "CCRF-CEM", "assay": "Dose required for reduce the reverse transcriptase activity in infected cell supernatant", "format": "functional, cell-based", "details": "Homo sapiens"}}, "note": "“And” between values parts separate entries of the source, which are not always exact repeats. Identical values can stand only once. Starred links: 1 amine or outer side, 2 acyl side, 3 side chain; linkers in the order of their positions; H or OH if unused. Non-standard residues stand in square brackets, D forms with d. Residues, ends and D or L forms follow the SMILES beside them. *: point of attachment. X2 = C=CCN([C@@H](C)C(=O)[*:2])[*:1]; X1 = O=C(CN(CC(Br)CBr)[*:1])[*:2]; X3 = O=C(CN(CC(Cl)CCl)[*:1])[*:2]; NAllylGly = C=CCNCC(=O)O; Boc = CC(C)(C)OC(=O)*"}
{"smiles": "C=CCN(CC(=O)N[C@H](C(=O)N[C@H](C(=O)OC)C(C)C)[C@@H](C)CC)C(=O)OC(C)(C)C", "values": [{"measurement": "EC50", "setting": "[1]", "result": "Not Active"}]}
{"smiles": "C=CCN(C(=O)[C@H](Cc1ccccc1)NC(=O)OC(C)(C)C)[C@@H](C)C(=O)N[C@H](C(=O)N[C@H](C(=O)OC)C(C)C)[C@@H](C)CC", "values": [{"measurement": "inhibition", "setting": "[2]", "result": 3, "unit": "%"}, {"measurement": "inhibition", "setting": "[3]", "result": "0% and 7%"}, {"measurement": "EC50", "setting": "[1]", "result": "Not Active"}]}
{"smiles": "C=CCNCC(=O)N[C@H](C(=O)N[C@H](C(=O)OC)C(C)C)[C@@H](C)CC", "values": [{"measurement": "EC50", "setting": "[1]", "result": "Not Active"}]}
{"smiles": "CC[C@H](C)[C@H](NC(=O)CN(CC(Cl)CCl)C(=O)[C@H](Cc1ccccc1)NC(=O)OC(C)(C)C)C(=O)N[C@H](C(=O)OC)C(C)C", "note": "(stereo partly specified)", "values": [{"measurement": "inhibition", "setting": "[2]", "result": 0, "unit": "%"}, {"measurement": "inhibition", "setting": "[3]", "result": "0% and 2%"}, {"measurement": "EC50", "setting": "[1]", "result": "Not Active"}]}
{"smiles": "CC[C@H](C)[C@H](NC(=O)CN(CC(Br)CBr)C(=O)[C@H](Cc1ccccc1)NC(=O)OC(C)(C)C)C(=O)N[C@H](C(=O)OC)C(C)C", "note": "(stereo partly specified)", "values": [{"measurement": "inhibition", "setting": "[2]", "result": 0, "unit": "%"}, {"measurement": "inhibition", "setting": "[3]", "result": "8% and 10%"}, {"measurement": "EC50", "setting": "[1]", "result": "Not Active"}]}
{"smiles": "C=CCN(CC(=O)N[C@H](C(=O)N[C@H](C(=O)OC)C(C)C)[C@@H](C)CC)C(=O)[C@H](Cc1ccccc1)NC(=O)[C@H](C)NC(=O)[C@H](C)NC(=O)OC(C)(C)C", "note": "(Boc-AAF[NAllylGly]IV-OMe)", "values": [{"measurement": "inhibition", "setting": "[2]", "result": 0, "unit": "%"}, {"measurement": "inhibition", "setting": "[3]", "result": "0% and 21%"}, {"measurement": "EC50", "setting": "[1]", "result": "Not Active"}, {"measurement": "IC50", "setting": "CCRF-CEM [4]", "result": "Not Active"}]}
{"smiles": "C=CCN(C(=O)[C@H](Cc1ccccc1)NC(=O)[C@H](C)NC(=O)[C@H](C)NC(=O)OC(C)(C)C)[C@@H](C)C(=O)N[C@H](C(=O)N[C@H](C(=O)OC)C(C)C)[C@@H](C)CC", "note": "(Boc-AAF[X2]IV-OMe)", "values": [{"measurement": "inhibition", "setting": "[2]", "result": 1, "unit": "%"}, {"measurement": "inhibition", "setting": "[3]", "result": 0, "unit": "%"}, {"measurement": "EC50", "setting": "[1]", "result": "Not Active"}]}
{"smiles": "C=CCN(CC(=O)N[C@H](C(=O)N[C@H](C(=O)OC)C(C)C)[C@@H](C)CC)C(=O)[C@H](Cc1ccccc1)NC(=O)[C@H](C)NC(=O)OC(C)(C)C", "note": "(Boc-AF[NAllylGly]IV-OMe)", "values": [{"measurement": "Ratio", "setting": "[5]", "result": 4.03}, {"measurement": "inhibition", "setting": "[2]", "result": 0, "unit": "%"}, {"measurement": "inhibition", "setting": "[3]", "result": "1% and 4%"}, {"measurement": "EC50", "setting": "CCRF-CEM [6]", "result": 8.15, "unit": "µg/mL"}, {"measurement": "EC50", "setting": "CCRF-CEM [7]", "result": 10, "unit": "µg/mL"}]}
{"smiles": "CC[C@H](C)[C@H](NC(=O)CN(CC(Br)CBr)C(=O)[C@H](Cc1ccccc1)NC(=O)[C@H](C)NC(=O)OC(C)(C)C)C(=O)N[C@H](C(=O)OC)C(C)C", "note": "(stereo partly specified) (Boc-AF[X1]IV-OMe)", "values": [{"measurement": "Ratio", "setting": "[5]", "result": "> 4.5"}, {"measurement": "inhibition", "setting": "[2]", "result": 0, "unit": "%"}, {"measurement": "inhibition", "setting": "[3]", "result": "3% and 0%"}, {"measurement": "EC50", "setting": "CCRF-CEM [6]", "result": 111, "unit": "µg/mL"}, {"measurement": "EC50", "setting": "CCRF-CEM [7]", "result": 200, "unit": "µg/mL"}]}
{"smiles": "C=CCN(C(=O)[C@H](Cc1ccccc1)NC(=O)[C@H](C)NC(=O)OC(C)(C)C)[C@@H](C)C(=O)N[C@H](C(=O)N[C@H](C(=O)OC)C(C)C)[C@@H](C)CC", "note": "(Boc-AF[X2]IV-OMe)", "values": [{"measurement": "Ratio", "setting": "[5]", "result": "> 2.51"}, {"measurement": "inhibition", "setting": "[2]", "result": 0, "unit": "%"}, {"measurement": "inhibition", "setting": "[3]", "result": "0% and 9%"}, {"measurement": "EC50", "setting": "CCRF-CEM [6]", "result": 80, "unit": "µg/mL"}, {"measurement": "EC50", "setting": "CCRF-CEM [7]", "result": 60, "unit": "µg/mL"}]}
{"smiles": "CC[C@H](C)[C@H](NC(=O)CN(CC(Cl)CCl)C(=O)[C@H](Cc1ccccc1)NC(=O)[C@H](C)NC(=O)OC(C)(C)C)C(=O)N[C@H](C(=O)OC)C(C)C", "note": "(stereo partly specified) (Boc-AF[X3]IV-OMe)", "values": [{"measurement": "inhibition", "setting": "[2]", "result": 0, "unit": "%"}, {"measurement": "inhibition", "setting": "[3]", "result": "0% and 12%"}, {"measurement": "EC50", "setting": "CCRF-CEM [6]", "result": "> 100", "unit": "µg/mL"}, {"measurement": "EC50", "setting": "CCRF-CEM [7]", "result": 100, "unit": "µg/mL"}]}
{"smiles": "C=CCN(CC(=O)N[C@H](C(=O)N[C@H](C(=O)OC)C(C)C)[C@@H](C)CC)C(=O)[C@H](Cc1ccccc1)NC(=O)OC(C)(C)C", "note": "(Boc-F[NAllylGly]IV-OMe)", "values": [{"measurement": "inhibition", "setting": "[2]", "result": 0, "unit": "%"}, {"measurement": "inhibition", "setting": "[3]", "result": "10% and 13%"}, {"measurement": "EC50", "setting": "[1]", "result": "Not Active"}]}
{"smiles": "C=CCN(CC(=O)N[C@H](C(=O)N[C@H](C(=O)OC)C(C)C)[C@@H](C)CC)C(=O)[C@H](Cc1ccccc1)NC(=O)[C@H](C)NC(=O)[C@H](C)NC(=O)[C@H](CO)NC(=O)OC(C)(C)C", "note": "(Boc-SAAF[NAllylGly]IV-OMe)", "values": [{"measurement": "inhibition", "setting": "[2]", "result": 0, "unit": "%"}, {"measurement": "inhibition", "setting": "[3]", "result": "14% and 0%"}, {"measurement": "EC50", "setting": "[1]", "result": "Not Active"}]}
{"smiles": "C=CCN(C(=O)[C@H](Cc1ccccc1)NC(=O)[C@H](C)NC(=O)[C@H](C)NC(=O)[C@H](CO)NC(=O)OC(C)(C)C)[C@@H](C)C(=O)N[C@H](C(=O)N[C@H](C(=O)OC)C(C)C)[C@@H](C)CC", "note": "(Boc-SAAF[X2]IV-OMe)", "values": [{"measurement": "EC50", "setting": "[1]", "result": "Not Active"}]}
{"smiles": "C=CCN(CC(=O)N[C@H](C(=O)N[C@H](C(=O)OC)C(C)C)[C@@H](C)CC)C(=O)[C@H](Cc1ccccc1)NC(=O)[C@H](C)N", "note": "(H-AF[NAllylGly]IV-OMe)", "values": [{"measurement": "EC50", "setting": "[1]", "result": "Not Active"}]}
{"smiles": "C=CCN(CC(=O)N[C@H](C(=O)N[C@H](C(=O)OC)C(C)C)[C@@H](C)CC)C(=O)[C@@H](N)Cc1ccccc1", "note": "(H-F[NAllylGly]IV-OMe)", "values": [{"measurement": "EC50", "setting": "[1]", "result": "Not Active"}]}
